From patent publication US20210220376A1, “ADDICTION TREATMENT OF AN ALCOHOL-CONSUMING PATIENT POPULATION” (Amygdala Neurosciences, Inc., priority 2018, published 2021)

System: healthy male alcohol drinkers
Experiment: Phase 1 single-ascending-dose study of compound (2) coadministered with ethanol: safety
Assay type: in vivo, human
Description: This was a single-center, randomized, double-blind, placebo-controlled, single-ascending-dose cohort study to evaluate the safety and tolerability of the coadministration of up to 6 dose levels of compound (2) (25 mg, 50 mg, 100 mg, 200 mg, 400 mg and 600 mg) and EtOH in healthy male alcohol drinkers.
Within 27 days of the medical screening visit, subjects were enrolled and attended an inpatient Qualification Phase in which they received up to 5 standard drinks (14 grams of EtOH each; oral solution of vodka containing 40% [v/v] EtOH, mixed with a non-carbonated beverage, one drink every 30 minutes) to evaluate their tolerance to repeat administration to ensure they could safely tolerate the planned EtOH treatment. A minimum washout interval of 44 hours was performed between initiation of the last EtOH administration in the Qualification Phase and study drug administration in the Treatment Phase.
Following qualification, eligible subjects were enrolled and randomized to receive compound (2) or placebo in a 3:1 fashion in each of 6 cohorts (8 subjects per cohort). As a safety precaution, no more than 4 subjects were administered study drug on any given day. Planned compound (2) dose levels included doses of 25 mg, 50 mg, 100 mg, 200 mg, 400 mg, and 600 mg. Study drug administration occurred approximately 1 hour following ingestion of a standardized (moderate-fat) meal. Approximately 2 hours after receiving the study drug, subjects began a session of repeat EtOH administration, during which they could receive up to 5 doses of EtOH (14 grams each, approximately 1 standard drink) every 30 minutes, or until a stopping criterion applied. Safety assessments, pharmacodynamic assessments and pharmacokinetic blood sample collections were obtained up to 48 hours post-dose. Subjects were discharged after 48-hour post-dose procedures were completed and the investigator deemed it safe to do so. Subjects returned for the safety follow-up visit approximately 7 (±2) days following discharge from the Treatment Phase or after early discontinuation from the study.
The primary endpoints included frequency and severity of adverse events (AEs), ethanol reaction (ER) scores and flushing, laboratory values, vital signs, and electrocardiograms (ECGs).
Subjects' ER scores and flushing were summarized descriptively by timepoint, category and treatment. In addition, flushing, ER heat sensation and ER palpitation were compared between each of the active doses and placebo using a mixed-effect model for repeated measures (MMRM) analysis with treatment, visit, and treatment by visit as fixed effects and baseline as a covariate. The actual value was used as the dependent variable and visit included pre-EtOH, 30 minutes, 60 minutes, 90 minutes, 120 minutes, 150 minutes and 3 hours relative to the first EtOH administration in Treatment Phase. The variance-covariance matrix was assumed to be unstructured. […] Results were presented as least square means (LSMEANS), treatment differences in LSMEANS, 95% confidence intervals (CI) and p-values.
Vital signs measurements (respiratory rate, systolic and diastolic blood pressure, and heart rate) were summarized by treatment and visit. Heart rate and diastolic blood pressure were also compared between each of the active doses and placebo using an MMRM analysis with treatment, visit, and treatment by visit as fixed effects and baseline as a covariate.
Twelve-lead ECG results were summarized by timepoint and treatment, and frequencies (numbers and percentages) were calculated for the overall evaluation. Concomitant medications, clinical laboratory evaluations (raw data and change from baseline, as applicable) and physical examination findings were listed.

[1] = 25 mg, 105 min after first EtOH
[2] = 25 mg, 135 min after first EtOH
[3] = 50 mg, 105 min after first EtOH
[4] = 50 mg, 135 min after first EtOH
[5] = 100 mg, 15 min after first EtOH
[6] = 100 mg, 45 min after first EtOH
[7] = 100 mg, 75 min after first EtOH
[8] = 100 mg, 105 min after first EtOH
[9] = 100 mg, 135 min after first EtOH
[10] = 200 mg, 15 min after first EtOH
[11] = 200 mg, 45 min after first EtOH
[12] = 200 mg, 75 min after first EtOH
[13] = 200 mg, 105 min after first EtOH

O=C(NCc1ccc(-c2ccn(COP(=O)(O)O)c(=O)c2)cc1)c1c(Cl)cccc1Cl [Compound (2), phosphoric acid mono-(4-{4-[(2,6-dichloro-benzoylamino)-methyl]-phenyl}-2-oxo-2H-pyridin-1-ylmethyl) ester]
flushing (25 mg): not observed
subjects reporting a TEAE (25 mg): 66.7%
Diastolic Blood Pressure, Mean (25 mg, 15 min after first EtOH): 76.0 mmHg
Systolic Blood Pressure, Mean (25 mg, 15 min after first EtOH): 120.3 mmHg
Diastolic Blood Pressure, Mean (25 mg, 45 min after first EtOH): 75.5 mmHg
Heart Rate, Mean (25 mg, 45 min after first EtOH): 65.3 beats/min
Systolic Blood Pressure, Mean (25 mg, 45 min after first EtOH): 120.5 mmHg
QTcF Interval, Aggregate, Mean (25 mg, 1 hour after initiation of repeat EtOH administration session): 406.7 ms
Diastolic Blood Pressure, Mean (25 mg, 75 min after first EtOH): 75.8 mmHg
Heart Rate, Mean (25 mg, 75 min after first EtOH): 63.5 beats/min
Systolic Blood Pressure, Mean (25 mg, 75 min after first EtOH): 120.7 mmHg
Diastolic Blood Pressure, Mean [1]: 74.0 mmHg
Heart Rate, Mean [1]: 66.5 beats/min
Systolic Blood Pressure, Mean [1]: 118.2 mmHg
Diastolic Blood Pressure, Mean [2]: 75.0 mmHg
Heart Rate, Mean [2]: 64.7 beats/min
Systolic Blood Pressure, Mean [2]: 119.0 mmHg
Diastolic Blood Pressure, Mean (25 mg, Pre-EtOH): 73.5 mmHg
Heart Rate, Mean (25 mg, Pre-EtOH): 59.5 beats/min
Systolic Blood Pressure, Mean (25 mg, Pre-EtOH): 117.2 mmHg
QTcF Interval, Aggregate, Mean (25 mg, prior to initiation of repeat EtOH administration session): 403.7 ms
subjects reporting a TEAE (50 mg): 83.3%
Diastolic Blood Pressure, Mean (50 mg, 15 min after first EtOH): 73.3 mmHg
Systolic Blood Pressure, Mean (50 mg, 15 min after first EtOH): 116.7 mmHg
Diastolic Blood Pressure, Mean (50 mg, 45 min after first EtOH): 75.2 mmHg
Heart Rate, Mean (50 mg, 45 min after first EtOH): 72.7 beats/min
Systolic Blood Pressure, Mean (50 mg, 45 min after first EtOH): 119.5 mmHg
QTcF Interval, Aggregate, Mean (50 mg, 1 hour after initiation of repeat EtOH administration session): 402.5 ms
Diastolic Blood Pressure, Mean (50 mg, 75 min after first EtOH): 73.8 mmHg
Heart Rate, Mean (50 mg, 75 min after first EtOH): 80.5 beats/min
Systolic Blood Pressure, Mean (50 mg, 75 min after first EtOH): 117.5 mmHg
Diastolic Blood Pressure, Mean [3]: 71.8 mmHg
Heart Rate, Mean [3]: 81.8 beats/min
Systolic Blood Pressure, Mean [3]: 117.5 mmHg
Diastolic Blood Pressure, Mean [4]: 78.7 mmHg
Heart Rate, Mean [4]: 76.8 beats/min
Systolic Blood Pressure, Mean [4]: 123.7 mmHg
Diastolic Blood Pressure, Mean (50 mg, Pre-EtOH): 74.5 mmHg
Heart Rate, Mean (50 mg, Pre-EtOH): 56.7 beats/min
Systolic Blood Pressure, Mean (50 mg, Pre-EtOH): 115.7 mmHg
subjects with TEAE of tachyarrhythmia (50 mg, after EtOH): one
QTcF Interval, Aggregate, Mean (50 mg, prior to initiation of repeat EtOH administration session): 400.7 ms
subjects reporting a TEAE (100 mg): 100%
Diastolic Blood Pressure, Mean [5]: 72.0 mmHg
Systolic Blood Pressure, Mean [5]: 119.2 mmHg
Diastolic Blood Pressure, Mean [6]: 70.2 mmHg
Heart Rate, Mean [6]: 70.5 beats/min
Systolic Blood Pressure, Mean [6]: 120.0 mmHg
QTcF Interval, Aggregate, Mean (100 mg, 1 hour after initiation of repeat EtOH administration session): 405.3 ms
Diastolic Blood Pressure, Mean [7]: 70.7 mmHg
Heart Rate, Mean [7]: 81.8 beats/min
Systolic Blood Pressure, Mean [7]: 120.2 mmHg
Diastolic Blood Pressure, Mean [8]: 69.5 mmHg
Heart Rate, Mean [8]: 83.8 beats/min
Systolic Blood Pressure, Mean [8]: 125.3 mmHg
Diastolic Blood Pressure, Mean [9]: 68.2 mmHg
Heart Rate, Mean [9]: 81.3 beats/min
Systolic Blood Pressure, Mean [9]: 114.8 mmHg
Diastolic Blood Pressure, Mean (100 mg, Pre-EtOH): 71.5 mmHg
Heart Rate, Mean (100 mg, Pre-EtOH): 57.0 beats/min
Systolic Blood Pressure, Mean (100 mg, Pre-EtOH): 115.7 mmHg
creatine kinase value of one subject (100 mg, follow-up, abnormal, not clinically significant): 1350 U/L
severe TEAE (100 mg, one event): 0.6%
QTcF Interval, Aggregate, Mean (100 mg, prior to initiation of repeat EtOH administration session): 401.3 ms
creatine kinase value of one subject, repeat (100 mg, repeat 3 days later): 583 U/L
subjects reporting a TEAE (200 mg): 100%
Diastolic Blood Pressure, Mean [10]: 76.5 mmHg
Systolic Blood Pressure, Mean [10]: 121.7 mmHg
Diastolic Blood Pressure, Mean [11]: 72.5 mmHg
Heart Rate, Mean [11]: 84.5 beats/min
Systolic Blood Pressure, Mean [11]: 124.5 mmHg
QTcF Interval, Aggregate, Mean (200 mg, 1 hour after initiation of repeat EtOH administration session): 403.2 ms
Diastolic Blood Pressure, Mean [12]: 69.8 mmHg
Heart Rate, Mean [12]: 97.0 beats/min
Systolic Blood Pressure, Mean [12]: 125.7 mmHg
Diastolic Blood Pressure, Mean [13]: 68.0 mmHg
Heart Rate, Mean [13]: 101.3 beats/min
Systolic Blood Pressure, Mean [13]: 124.0 mmHg
